We go through 18 compounds from patent publication US9902725B2, “Heterocyclic derivatives as RORgamma modulators” (GENFIT, priority 2014, dated 2018).

Test [1] has as its target T1, human RORγt (Homo sapiens, UniProt P51449).
T1 sequence (P51449 1-497 isoform P51449-2): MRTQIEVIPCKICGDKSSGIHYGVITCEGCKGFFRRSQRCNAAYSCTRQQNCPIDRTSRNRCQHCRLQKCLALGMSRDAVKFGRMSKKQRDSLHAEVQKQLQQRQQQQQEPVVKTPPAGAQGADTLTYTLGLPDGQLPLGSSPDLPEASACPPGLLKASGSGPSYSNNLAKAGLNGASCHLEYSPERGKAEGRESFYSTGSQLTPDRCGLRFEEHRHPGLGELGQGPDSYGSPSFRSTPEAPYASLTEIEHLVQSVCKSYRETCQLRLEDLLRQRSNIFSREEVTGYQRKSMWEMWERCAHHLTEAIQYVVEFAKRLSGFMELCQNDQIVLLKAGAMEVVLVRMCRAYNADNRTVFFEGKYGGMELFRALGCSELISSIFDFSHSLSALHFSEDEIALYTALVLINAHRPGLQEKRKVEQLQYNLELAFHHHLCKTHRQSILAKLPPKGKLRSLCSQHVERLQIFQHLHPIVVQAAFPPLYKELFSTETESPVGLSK
Briefly: RORE luciferase/RORγt transactivation assay. The class given is cell-based. Further details: expressed in transfected cells. The conditions noted are these: COS-7 cells transfected with IL-17 promoter luciferase reporter and RORγt plasmid, 20 h. The source says:
It is well known that RORγ binds to a conserved non-coding sequence (CNS) enhancer element in the IL-17 promoter. Accordingly, we have used in this assay a luciferase reporter gene construct that contains the human IL-17 promoter fragment with RORγ-specific CNS enhancer element and a RORγt overexpressing plasmid, to indirectly assess the effect of compounds on RORγ activity. Inhibition of RORγ activity by test compounds will result in a decrease in luciferase activity in COS-7 cells transfected with the reporter construct.
Monkey Kidney COS-7 cell line are maintained in a standard culture medium Dulbecco's modified Eagle's minimal (DMEM) medium supplemented with 10% fetal calf serum, 1% sodium pyruvate, 1% essential amino acids and 1% antibiotics at 37° C. in a humidified atmosphere of 5% CO2 and 95% air. Culture medium was changed every 2 days.
The 4.3 Kb human IL-17 promoter containing the RORγ-specific CNS enhancer element was PCR amplified from human genomic DNA and cloned into a pGL3-TKLuc2Cp reporter plasmid. To overexpress RORγt, the full-length cDNA of human RORγt (identical to published sequence NM 001001523) was cloned without any restriction into pcdna3.1DV5-His-topo to generate the RORγt overexpression plasmid “RORγt_FL_h_pcDNA3.1DV5-His-TOPO_1”.
The luciferase reporter plasmid and the RORγt overexpression plasmid were transfected into COS-7 cell line using 4 μLJetPEITM/μg of DNA. Briefly, 150 ng of DNA (ration ½ between RORE-Tk Luc2Cp and cDNA RORγt or the empty vector for the negative control) was served to transfect adherent COS-7 cells in a […] culture flask, in complete medium (see cos-7 cell line culture). Cells were incubated for 24 hours in a humidified atmosphere of 5% CO2 and 95% air
Cells were then detached (using trypsin) and washed by centrifugation at 300 g for 10 minutes. Cell pellet was resuspended in serum free/phenol red free DMEM and seeded in 384 well plates at a density of 10000 cells/well and then incubated for 4 h at 37° C.
Compounds were dissolved in 100% DMSO to obtain 10 mM stock solutions. For each compound, test concentrations were diluted in serum free/phenol red free DMEM using the Genesis Freedom 200™ (TECAN) and added to the cells to obtain a 0.3% DMSO final concentration (in a final volume of 40 μL per well). T091317 was used as reference compound. Cells were incubated in presence of compounds for an additional 20 h at 37° C. in a humidified atmosphere of 5% CO2 and 95% air
The luciferase activity was then measured with 40 μL/well steady-Glo Luciferase assay system (Promega, Madison, Wis.) and after incubation at room temperature for 30 minutes. The luminescence was estimated using the Ultra384 reader (TECAN). Data were collected and analyzed using GraphPad Prism software (GraphPad Software V5.02, San Diego Calif. USA). IC50 in μM and Emax in % were reported for each compound.
(In general: Reporter assays use an easily measured gene product as a stand-in for the process of interest.)

For test [2], the target named is T2, RORγt ligand-binding domain (RORγt-LBD) (Homo sapiens, UniProt P51449).
T2 construct: 20 nM recombinantly expressed RORγ-LBD fused to GST
T2 sequence (P51449 269-508 limits assumed): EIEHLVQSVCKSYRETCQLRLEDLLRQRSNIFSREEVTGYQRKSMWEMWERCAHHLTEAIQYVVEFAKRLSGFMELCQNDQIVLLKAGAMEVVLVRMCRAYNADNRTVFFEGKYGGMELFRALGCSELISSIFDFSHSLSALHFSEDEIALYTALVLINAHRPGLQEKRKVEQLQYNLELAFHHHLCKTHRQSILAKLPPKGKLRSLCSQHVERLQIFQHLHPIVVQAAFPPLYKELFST
Briefly: Time-resolved FRET (TR-FRET) RORγt coactivator assay. The settings on record: GST-RORγ-LBD, biotinylated RIP140 peptide, coactivator displacement. The class given is biochemical. In general terms: Time-resolved FRET reads energy transfer from a long-lived donor to a nearby acceptor.

For test [3], the target named is T1, human RORγt. Briefly: IL-17 secretion from EL4 murine lymphoma overexpressing human RORγt. The class given is cell-based. Also on record: expressed in transfected cells; host or cells: EL-4 murine lymphoma. The conditions noted are these: IL-17 secretion inhibition, PMA and ionomycin stimulation, 24 h. In outline:
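EL4 murine lymphoma cells electroporated with hRORγt plasmid, seeded 150000 cells/well, pretreated with compound, then stimulated with PMA (10 ng/mL) and ionomycin (1 μM final) with compound for a further 24 h at 37° C. IL-17 in supernatant measured by HTRF or ELISA.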

Usually IC50 stands for the concentration at which inhibition is half-maximal. Low readings indicate greater potency, high ones weaker potency. In the case of `Cc1ccc(C(NC(=O)Cc2ccc3[nH]cc(CCC(=O)O)c3c2)c2ccccc2)c(Cl)c1` (stereo not drawn) [Cpd. 7, 3-[5-({[(2-chloro-4-methylphenyl)(phenyl)methyl]carbamoyl}methyl)-1H-indol-3-yl]propanoic acid], the IC50 was 1000 to 10000 nM against human RORγt [1] and under 1000 nM in test [2].
In the same order, the values of `Cc1ccc(C(NC(=O)Cc2ccc3[nH]cc(CCC(=O)O)c3c2)c2ccccc2)c(Br)c1` (stereo not drawn) [Cpd. 9, 3-[5-({[(2-bromo-4-methylphenyl)(phenyl)methyl]carbamoyl}methyl)-1H-indol-3-yl]propanoic acid] are 1000 to 10000 nM and under 1000 nM.
For `Cc1ccc(C(NC(=O)Cc2ccc3[nH]cc(CCC(=O)O)c3c2)c2ccccc2)c(N2CCCC2)n1` (stereo not drawn) [Cpd. 15, 3-{5-[({[6-methyl-2-(pyrrolidin-1-yl)pyridin-3-yl](phenyl)methyl}carbamoyl)methyl]-1H-indol-3-yl}propanoic acid], the IC50 against human RORγt [1] is 1000 to 10000 nM; on human RORγt [3], 10000 to 30000 nM; in test [2], under 1000 nM.
On to `Cc1ccc(C(NC(=O)Cc2ccc3[nH]cc(CCC(=O)O)c3c2)c2ccccc2)c(F)c1` (stereo not drawn) [Cpd. 17, 3-[5-({[(2-fluoro-4-methylphenyl)(phenyl)methyl]carbamoyl}methyl)-1H-indol-3-yl]propanoic acid], for which the IC50 on human RORγt [1] was over 10000 nM; in test [2], 1000 to 10000 nM.
Taken in the same sequence, the figures for `Cc1ccc(F)c(C(NC(=O)Cc2ccc3[nH]cc(CCC(=O)O)c3c2)c2ccccc2)c1` (stereo not drawn) [Cpd. 19, 3-[5-({[(2-fluoro-5-methylphenyl)(phenyl)methyl]carbamoyl}methyl)-1H-indol-3-yl]propanoic acid] were over 10000 nM and 1000 to 10000 nM.
In the same order, the values of `Cc1ccc(C(NC(=O)Cc2ccc3[nH]cc(CCC(=O)O)c3c2)c2ccccn2)c(C)c1` (stereo not drawn) [Cpd. 21, 3-[5-({[(2,4-dimethylphenyl)(pyridin-2-yl)methyl]carbamoyl}methyl)-1H-indol-3-yl]propanoic acid] are over 10000 nM and under 1000 nM.
As to `O=C(O)Cc1c[nH]c2ccc(CC(=O)NC(c3ccccc3)c3ccccc3N3CCCCC3)cc12` (stereo not drawn) [Cpd. 39, 2-{5-[({phenyl[2-(piperidin-1-yl)phenyl]methyl}carbamoyl)methyl]-1H-indol-3-yl}acetic acid], the 50% inhibitory concentration (IC50) (at human RORγt [1]; in test [2]) was 1000 to 10000 nM each time.
For `Cc1ccc(C(NC(=O)Cc2ccc3[nH]cc(CCC(=O)O)c3c2)c2cccnc2)c(C)c1` (stereo not drawn) [compound 27, 3-[5-({[(2,4-dimethylphenyl)(pyridin-3-yl)methyl]carbamoyl}methyl)-1H-indol-3-yl]propanoic acid], the values for the IC50 (against human RORγt [1]; in test [2]) were over 10000 nM and 1000 to 10000 nM, respectively.
Taken in the same sequence, the figures for `Cc1ccc(C(NC(=O)Cc2ccc3[nH]cc(CCC(=O)O)c3c2)c2ccccc2)c2ncccc12` (stereo not drawn) [compound 31, 3-[5-({[(5-methylquinolin-8-yl)(phenyl)methyl]carbamoyl}methyl)-1H-indol-3-yl]propanoic acid] were over 10000 nM and under 1000 nM.
In the same order, the values of `Cc1cc(Cl)ccc1C(NC(=O)Cc1ccc2[nH]cc(CCC(=O)O)c2c1)c1ccccc1` (stereo not drawn) [compound 33, 3-[5-({[(4-chloro-2-methylphenyl)(phenyl)methyl]carbamoyl}methyl)-1H-indol-3-yl]propanoic acid] are 1000 to 10000 nM and under 1000 nM.
As for `O=C(O)CCc1c[nH]c2ccc(CC(=O)NC(c3ccccc3)c3ccccc3N3CCCCCC3)cc12` (stereo not drawn) [compound 35, 3-{5-[({[2-(azepan-1-yl)phenyl](phenyl)methyl}carbamoyl)methyl]-1H-indol-3-yl}propanoic acid], the IC50 was under 1000 nM at human RORγt [1], 1000 to 10000 nM on human RORγt [3] and under 1000 nM in test [2].
For `Cc1ccc(C(NC(=O)Cc2ccc3[nH]cc(CCC(=O)O)c3c2)c2ccccc2)c2ccccc12` (stereo not drawn) [compound 37, 3-[5-({[(4-methylnaphthalen-1-yl)(phenyl)methyl]carbamoyl}methyl)-1H-indol-3-yl]propanoic acid], the concentration for half-maximal inhibition (IC50) on human RORγt [1] was 1000 to 10000 nM; against human RORγt [3], 10000 to 30000 nM; in test [2] it was under 1000 nM.
Turning to `Cc1ccc(C(NC(=O)Cc2ccc3[nH]cc(CCC(=O)O)c3c2)c2ccccc2)c(N2CC=CC2)c1` (stereo not drawn) [compound 200, 3-{5-[({[2-(2,5-dihydro-1H-pyrrol-1-yl)-4-methylphenyl](phenyl)methyl}carbamoyl)methyl]-1H-indol-3-yl}propanoic acid], the half-inhibitory concentration (IC50) at human RORγt [3] was 1000 to 10000 nM; in test [2] it was under 1000 nM.
In the same order, the values of `Cc1cccc(C(NC(=O)Cc2ccc3[nH]cc(CCC(=O)O)c3c2)c2ccccc2)c1N1CCCCC1` (stereo not drawn) [compound 202, 3-{5-[({[3-methyl-2-(piperidin-1-yl)phenyl](phenyl)methyl}carbamoyl)methyl]-1H-indol-3-yl}propanoic acid] are 1000 to 10000 nM and under 1000 nM.
`Cc1ccc(C(C(=O)NCc2ccc3[nH]cc(CCC(=O)O)c3c2)c2ccccc2)c(N2CCCCC2)c1` (stereo not drawn) [compound 209, 3-[5-({2-[4-methyl-2-(piperidin-1-yl)phenyl]-2-phenylacetamido}methyl)-1H-indol-3-yl]propanoic acid]: the 50% inhibitory concentration (IC50) against human RORγt [3] is 1000 to 10000 nM; in test [2] it was under 1000 nM.
In the same order, the values of `O=C(O)CCCCc1c[nH]c2ccc(CC(=O)NC(c3ccccc3)c3ccccc3N3CCCCC3)cc12` (stereo not drawn) [compound 217, 5-{5-[({phenyl[2-(piperidin-1-yl)phenyl]methyl}carbamoyl)methyl]-1H-indol-3-yl}pentanoic acid] are 1000 to 10000 nM and under 1000 nM.
As to `CC(C)(C)OC(=O)CCc1c[nH]c2ccc(CC(=O)NC(c3ccccc3)c3ccc(O)cc3N3CCCCC3)cc12` (stereo not drawn) [compound 264, tert-butyl 3-{5-[({[4-hydroxy-2-(piperidin-1-yl)phenyl](phenyl)methyl}carbamoyl)methyl]-1H-indol-3-yl}propanoate], the IC50 (against human RORγt [3]; in test [2]) was 1000 to 10000 nM throughout.
`Cc1ccc(C(NC(=O)Cc2ccc3[nH]cc(CCC(=O)O)c3c2)c2ccc(C)o2)c(N2CCCCC2)c1` (stereo not drawn) [compound 268, 3-{5-[({[4-methyl-2-(piperidin-1-yl)phenyl](5-methylfuran-2-yl)methyl}carbamoyl)methyl]-1H-indol-3-yl}propanoic acid]: the IC50 (on human RORγt [1]; in test [2]) was under 1000 nM each time.
